This note sets out measurements from patent US6417212B1, “Modulators of peroxisome proliferator activated receptors” (Eli Lilly & Company, priority 1999, dated 2002).

For assay [1], the target named is T1, huPPARα (Homo sapiens, UniProt Q07869).
T1 sequence (Q07869 1-468): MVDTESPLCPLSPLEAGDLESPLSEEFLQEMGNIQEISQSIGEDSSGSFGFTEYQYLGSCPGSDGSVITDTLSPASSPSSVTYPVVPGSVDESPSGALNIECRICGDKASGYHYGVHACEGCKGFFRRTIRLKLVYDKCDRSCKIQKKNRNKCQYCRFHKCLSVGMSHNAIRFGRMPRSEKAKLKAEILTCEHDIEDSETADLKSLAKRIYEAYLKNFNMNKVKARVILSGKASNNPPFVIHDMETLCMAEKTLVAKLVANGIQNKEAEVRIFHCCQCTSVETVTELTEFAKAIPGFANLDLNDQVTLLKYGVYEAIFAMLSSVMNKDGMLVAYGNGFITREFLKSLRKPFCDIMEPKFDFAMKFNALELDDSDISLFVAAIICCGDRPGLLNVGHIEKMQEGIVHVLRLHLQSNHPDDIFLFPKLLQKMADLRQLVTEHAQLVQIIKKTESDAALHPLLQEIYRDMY
T1 sequence (P19793 1-462 partner): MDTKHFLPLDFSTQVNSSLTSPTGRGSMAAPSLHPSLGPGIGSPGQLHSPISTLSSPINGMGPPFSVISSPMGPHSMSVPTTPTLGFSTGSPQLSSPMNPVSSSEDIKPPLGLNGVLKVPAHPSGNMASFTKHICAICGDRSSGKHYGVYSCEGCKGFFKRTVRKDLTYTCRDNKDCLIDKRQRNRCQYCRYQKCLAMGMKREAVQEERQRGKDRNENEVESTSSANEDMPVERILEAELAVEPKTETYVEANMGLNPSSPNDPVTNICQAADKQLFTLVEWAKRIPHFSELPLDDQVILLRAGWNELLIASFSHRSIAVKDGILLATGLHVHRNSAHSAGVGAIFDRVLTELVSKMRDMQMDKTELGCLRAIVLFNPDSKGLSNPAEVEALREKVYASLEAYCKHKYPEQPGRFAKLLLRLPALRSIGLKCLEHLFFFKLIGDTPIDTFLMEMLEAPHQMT
The experiment in a line: DNA-dependent binding (ABCD binding), SPA, huPPARα. Particulars: displacement of tritium-labeled PPARα agonist radioligand. As to the method: (§1) DNA-dependent binding (ABCD binding) was carried out using SPA technology with PPAR receptors. Tritium-labeled PPARγ and PPARα agonists were used as radioligands for generating displacement curves and IC50 values with compounds of the invention. Cotransfection assays were carried out in CV-1 cells. The reporter plasmid contained an acylCoA oxidase (AOX) PPRE and TK promoter upstream of the luciferase reporter cDNA. Appropriate PPARs and RXRα were constitutively expressed using plasmids containing the CMV promoter. […] In order to eliminate such interference, a GAL4 chimeric system was used in which the DNA binding domain of the transfected PPAR was replaced by that of GAL4, and the GAL4 response element was utilized in place of the AOX PPRE. Cotransfection efficacy was determined relative to PPARα agonist and PPARβ agonist reference molecules. Efficacies were determined by computer fit to a concentration-response curve, or in some cases at a single high concentration of agonist (10 μM). For binding or cotransfection studies with receptors other than PPARs, similar assays were carried out using appropriate ligands, receptors, reporter constructs, etc., for that particular receptor.
(§2) These studies were carried out to evaluate the ability of compounds of the invention to bind to and/or activate various nuclear transcription factors, particularly huPPARα (“hu” indicates “human”) and huPPARγ. These studies provide in vitro data concerning efficacy and selectivity of compounds of the invention. Furthermore, binding and cotransfection data for compounds of the invention were compared with corresponding data for marketed compounds that act on either huPPARα or huPPARγ.

The test system of assay [2] is huPPARα. The experiment in a line: Cotransfection assay in CV-1 cells, huPPARα (GAL4 chimeric system). To be noted: luciferase reporter, relative to PPARα agonist reference molecule. In kind it is cell-based, human. As to the method: DNA-dependent binding (ABCD binding) was carried out using SPA technology with PPAR receptors. Tritium-labeled PPARγ and PPARα agonists were used as radioligands for generating displacement curves and IC50 values with compounds of the invention. Cotransfection assays were carried out in CV-1 cells. The reporter plasmid contained an acylCoA oxidase (AOX) PPRE and TK promoter upstream of the luciferase reporter cDNA. Appropriate PPARs and RXRα were constitutively expressed using plasmids containing the CMV promoter. For PPARα and PPARβ, interference by endogenous PPARγ in CV-1 cells was an issue. In order to eliminate such interference, a GAL4 chimeric system was used in which the DNA binding domain of the transfected PPAR was replaced by that of GAL4, and the GAL4 response element was utilized in place of the AOX PPRE. Cotransfection efficacy was determined relative to PPARα agonist and […] reference molecules. Efficacies were determined by computer fit to a concentration-response curve, or in some cases at a single high concentration of agonist (10 μM). For binding or cotransfection studies with receptors other than PPARs, similar assays were carried out using appropriate ligands, receptors, reporter constructs, etc., for that particular receptor.
as §2
(Reporter assays use an easily measured gene product as a stand-in for the process of interest.)

Assay [3] deals with T2, huPPARγ (Homo sapiens, UniProt P37231).
T2 sequence (P37231 1-505): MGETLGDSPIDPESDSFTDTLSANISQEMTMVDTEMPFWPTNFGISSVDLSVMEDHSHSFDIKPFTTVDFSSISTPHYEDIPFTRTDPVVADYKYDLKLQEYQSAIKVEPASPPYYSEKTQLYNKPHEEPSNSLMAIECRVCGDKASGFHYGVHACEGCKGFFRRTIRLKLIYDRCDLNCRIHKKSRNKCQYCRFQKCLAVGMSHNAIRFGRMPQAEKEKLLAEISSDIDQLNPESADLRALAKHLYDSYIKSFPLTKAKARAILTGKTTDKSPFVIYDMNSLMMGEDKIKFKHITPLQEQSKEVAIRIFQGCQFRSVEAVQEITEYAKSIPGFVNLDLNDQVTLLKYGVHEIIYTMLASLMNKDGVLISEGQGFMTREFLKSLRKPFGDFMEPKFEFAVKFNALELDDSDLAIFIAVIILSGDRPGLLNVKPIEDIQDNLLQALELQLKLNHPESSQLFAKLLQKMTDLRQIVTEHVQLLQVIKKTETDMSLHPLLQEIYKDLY
T2 sequence (P19793 1-462 partner): T1 sequence (P19793 1-462 partner)
In words: DNA-dependent binding (ABCD binding), SPA, huPPARγ. Particulars: displacement of tritium-labeled PPARγ agonist radioligand. As to the method:
as §1, §2

The target of assay [4] is T2, huPPARγ. In words: Cotransfection assay in CV-1 cells, huPPARγ. Also noted: expressed in transfected cells; host or cells: CV-1 cells. Format: cell-based. To be noted: AOX PPRE luciferase reporter, relative to agonist reference molecule, read-out: huPPARγ CTF Efficacy. As to the method: as §1, with “Tritium-labeled PPARγ and PPARα agonists were used as radioligands for generating displacement curves and IC50 values with compounds of the invention.” left out, “Cotransfection efficacy was determined relative to PPARα agonist and PPARβ agonist reference molecules.” left out
as §2

Broadly, the IC50 is the concentration that gives 50% inhibition. Consider `Cc1oc(-c2cccc(-c3ccccc3)c2)nc1CCOc1ccc(OC(C)(C)C(=O)O)c(Cc2ccccc2)c1` [Example 35, 2-{2-Benzyl-4-[2-(2-biphenyl-3-yl-5-methyloxazol-4-yl)-ethoxy]-phenoxy}-2-methyl-propionic acid], for which the half-inhibitory concentration (IC50) in assay [1] came to 65 nM; in assay [3], 24 nM. In assay [2], the “huPPARα CTF Efficacy” value is 90%. The Emax in assay [4] came out at 61%.
The like results for `COc1ccccc1-c1ccc(-c2nc(CCOc3ccc(OC(C)(C)C(=O)O)cc3)c(C)o2)cc1` [Example 10, 2-(4-{2-[2-(2′-Methoxy-biphenyl-4-yl)-5-methyloxazol-4-yl]-ethoxy}-phenoxy)-2-methylpropionic acid] were, in that order, 350 nM, 1060 nM, 111% and 80%.
As for `Cc1oc(-c2ccc(-c3ccccc3)cc2)nc1CCOc1ccc(OC(C)(C)C(=O)O)cc1CC1CCCCC1` [Example 34, 2-{4-[2-(2-Biphenyl-4-yl-5-methyloxazol-4-yl)ethoxy]-3-cyclohexylmethylphenoxy}-2-methylpropionic acid], the values for the IC50 in assay [1] and in assay [3] were 193 nM and 227 nM, respectively. For the same compound, in assay [2], the “huPPARα CTF Efficacy” value was determined as 180%. For the same compound, in assay [4], the Emax turned out to be 55%.
With `Cc1oc(-c2ccc(-c3ccccc3)cc2)nc1CCSc1ccc(OC(C)(C)C(=O)O)cc1` [Example 47, 2-{4-[2-(2-Biphenyl-4-yl-5-methyloxazol-4-yl)-ethylsulfanyl]-phenoxy}-2-methyl-propionic acid], the results for the IC50 in assay [1] and in assay [3] were 371 nM and 1530 nM, respectively. In assay [2], the “huPPARα CTF Efficacy” value is 90%. The Emax in assay [4] came to 126%.
Consider `Cc1oc(-c2ccc(-c3ccccc3)cc2)nc1CCOc1ccc(OC(C)(C)C(=O)O)c(Cc2ccccc2)c1` [Example 36, 2-{2-Benzyl-4-[2-(2-biphenyl-4-yl-5-methyloxazol-4-yl)-ethoxy]-phenoxy}-2-methyl-propionic acid], for which the half-maximal inhibitory concentration (IC50) was 140 nM in assay [1] and 62 nM in assay [3]. In addition, the “huPPARα CTF Efficacy” value in assay [2] turned out to be 140%. The Emax in assay [4] was 92%.
The like results for `CCCCc1cc(OC(C)(C)C(=O)O)ccc1OCCc1nc(-c2cccc(-c3ccccc3)c2)oc1C` [Example 32, 2-{4-[2-(2-Biphenyl-3-yl-5-methyloxazol-4-yl)ethoxy]-3-butylphenoxy}-2-methylpropionic acid] were, in that order, 47 nM, 12 nM, 91% and 60%.
On the same counts, the results for `Cc1oc(-c2cccc(-c3ccccc3)c2)nc1CCOc1ccc(OC(C)(C)C(=O)O)c(CC2CCCCC2)c1` [Example 26, 2-{4-[2-(2-Biphenyl-3-yl-5-methyloxazol-4-yl)-ethoxy]-2-cyclohexylmethyl-phenoxy}-2-methyl-propionic acid] are 78 nM, 33 nM, 111% and 73%.
As to `Cc1oc(-c2ccc(-c3ccccc3F)cc2)nc1CCOc1ccc(OC(C)(C)C(=O)O)cc1` [Example 13, 2-(4-{2-[2-(2′-Fluorobiphenyl-4-yl)-5-methyloxazol-4-yl]-ethoxy}-phenoxy)-2-methylpropionic acid], the results for the half-maximal inhibitory concentration (IC50) in assay [1] and in assay [3] were 475 nM and 928 nM, respectively. Moreover, the “huPPARα CTF Efficacy” value in assay [2] is given as 84%. In addition, in assay [4], the Emax is 100%.
For `Cc1oc(-c2ccc(-c3ccccc3)cc2)nc1CCOc1ccc(OC(C)(C)C(=O)O)c(CCc2ccccc2)c1` [Example 28, 2-{4-[2-(2-Biphenyl-4-yl-5-methyloxazol-4-yl)ethoxy]-2-phenethylphenoxy}-2-methylpropionic acid], the concentration for half-maximal inhibition (IC50) in assay [1] was determined as 172 nM; in assay [3] it was 140 nM. Besides, the “huPPARα CTF Efficacy” value in assay [2] is reported as 93%. Besides, in assay [4], the Emax came out at 63%.
